Measurements from publication PMC3930709, “Selective Activation of hTRPV1 by N-Geranyl Cyclopropylcarboxamide, an Amiloride-Insensitive Salt Taste Enhancer” (PLoS ONE, 2014).

How the values were obtained:
[1] = target: T1, hTRPA1 (Homo sapiens, UniProt O75762); assay: Whole-cell patch clamp recording, cells stably expressing hTRPA1; type: cell-based
T1 construct: expressed in transfected cells
Method: (§1) Flp-In 293 cell lines stably expressing hTRPA1constructed as previously reported was a gift from the professor Takumi Misaka at University of Tokyo. The hTRPA1-expressing cells were cultured in DMEM containing 10% FBS and 0.02% hygromycin B (Invitrogen). Flp-In 293 cell lines were maintained in DMEM containing 10% FBS. All cells were incubated at 37°C in a humidified atmosphere of 5% CO2.
(§2) The whole-cell configuration was used to voltage-clamp at room temperature (22–25°C). Electrodes pulled from glass micropipette capillaries (Sutter Instrument) had resistances of 2–2.5 MΩ, and series resistance errors were compensated >60%. Fast and slow capacitances were compensated before the application of test-pulse. Recordings were performed using aHEKAEPC-10 amplifier with pulse software (HEKA Elektronik). The pipette solution contained: 140 mM KCl, 5 mM MgCl2, 10 mM HEPES, 0.1 mM 1,2-bis(2-aminophenoxy) ethane N,N,N’,N’-tetraacetic acid(BAPTA), 3 mM Na2ATP, and 0.1 mM Na3GTP, adjusted to pH 7.4 with KOH. The external Ringer’s solution used for recording TRPV1 and TRPA1 currents contained: 150 mM NaCl, 5 mM KCl, 1 mM MgCl2, 2 mM EGTA, 10 mM Glucose, and 10 mM HEPES, adjusted to pH 7.4 with NaOH. TRPV1 and TRPA1 currents were recorded by holding the cell at −80 mV. The external Ringer’s solution used for recording ASIC current contained: 160 mM NaCl, 5 mM KCl, 1 mM MgCl2, 2 mM CaCl2, and 10 mM HEPES, adjusted to pH 7.4 with tetramethylammonium hydroxide. For acidic solution of pH 6.0, HEPES was replaced with MES. ASIC currents were recorded by holding the cell at −70 mV. Reagents were obtained as follows: BAPTA, Na2ATP, Na3GTP, EGTA, and tetramethylammonium hydroxide (Sigma), HEPES (Calbiochem), MES (Alfa Aesar), and other chemicals (Merck).

[2] = target: T1, hTRPA1; assay: Measurement of Ca2+ influx (Fluo-4 AM, FlexStation III) in hTRPA1-expressing cells; type: cell-based; conditions: for block of NGCC activity on hTRPA1-expressing cells (dose-response): RR 30 µM, HC-030031 100 µM; for block of AITC activity on hTRPA1-expressing cells (dose-response): RR 30 µM: below 30 µM AITC, HC-030031 100 µM: below 10 µM AITC
Method: as §1
(§3) The ligand-induced changes on cytosolic Ca^2+ level were monitored by a FlexStation III microplate reader (Molecular Devices). Fluo-4 AM (5 µM, Molecular Probes, Eugene, OR, USA) in assay buffer was loaded to the cells in 96-well black-wall plates for 30 min at 27°C. After dye treatment, each chemical was added to each well at 17 s and changes on intracellular Ca^2+ level were monitored by relative fluorescence units (ΔRFU, Ex = 485 nm; Em = 516 nm) for 120 s. […] The responses from at least three wells receiving the same stimulus were averaged. Plots of amplitude versus concentration were fitted using the Hill equation.

[3] = target: T1, hTRPA1; assay: Ca2+ imaging (Fura-2 AM) of hTRPA1-expressing Flp-In 293 cells; type: cell-based; conditions: RR 30 µM, HC-030031 100 µM
Method: Flp-In 293 cell lines stably expressing hTRPA1constructed as previously reported was a gift from the professor […] at University of Tokyo. The hTRPA1-expressing cells were cultured in DMEM containing 10% FBS and 0.02% hygromycin B (Invitrogen). Flp-In 293 cell lines were maintained in DMEM containing 10% FBS. All cells were incubated at 37°C in a humidified atmosphere of 5% CO2. […] Mock-transfected HEK293T cells, hTRPV1-expressing HEK293T cells, non-hTRPA1-expressing Flp-In 293 cells, and hTRPA1-expressing Flp-In 293 cells grown in 96-well black-wall plates were rinsed with assay buffer (130 mM NaCl, 10 mM glucose, 5 mM KCl, 2 […]2, 1.2 mM MgCl2, and 10 mM HEPES, pH 7.4) and loaded with 5 μM Fura-2 AM (Invitrogen) for 30 min at 27°C. The cells were washed with assay buffer and treated with ligands. […] The fluorescence intensities of Fura-2 excited at 340 and 380 nm were simultaneously measured at 510 nm using a computer-controlled filter changer (Lambda DG4; Sutter, San Rafael, CA, USA), an Andor Luca CCD camera (Andor Technology, Belfast, UK), and an inverted fluorescence microscope (IX-71; Olympus, Tokyo, Japan). Intracellular calcium images were recorded every 3-s for 60-s and analyzed using MetaFluor software (Molecular Devices, Sunnyvale, CA, USA).

[4] = target: T2, hTRPV1 (Homo sapiens, UniProt Q8NER1); assay: Ca2+ imaging (Fura-2 AM) of hTRPV1-expressing HEK293T cells; type: cell-based; conditions: NGCC 30 µM; RR 30 µM, CPZ 1 µM
T2 construct: expressed in transfected cells; host or cells: HEK293T
Method: hTRPV1 was constructed by amplification of the hTRPV1 region (NCBI accession number: NG_029716.1) and cloned into pEAK10 vector (Edge Biosystems, Gaithersburg, MD, USA). The hTRPV1 construct was amplified by PCR and the nucleotide sequence of the hTRPV1 gene was confirmed by sequencing with an ABI 3130 DNA genetic analyzer (Applied Biosystems, Foster City, CA, USA). […] After 6 h, transfected cells were seeded onto 96-well black-wall plate (BD Falcon Labware, Franklin Lakes, NJ, USA) for 18-26 h prior to their use in an experiment. Mock-transfected HEK293T cells, hTRPV1-expressing HEK293T cells, non-hTRPA1-expressing Flp-In 293 cells, and hTRPA1-expressing Flp-In 293 cells grown in 96-well black-wall plates were rinsed with assay buffer (130 mM NaCl, 10 mM glucose, 5 mM KCl, 2 […]2, 1.2 mM MgCl2, and 10 mM HEPES, pH 7.4) and loaded with 5 μM Fura-2 AM (Invitrogen) for 30 min at 27°C. […] The fluorescence intensities of Fura-2 excited at 340 and 380 nm were simultaneously measured at 510 nm using a computer-controlled filter changer (Lambda DG4; Sutter, San Rafael, CA, USA), an Andor Luca CCD camera (Andor Technology, Belfast, UK), and an inverted fluorescence microscope (IX-71; Olympus, Tokyo, Japan). Intracellular calcium images were recorded every 3-s for 60-s and analyzed using MetaFluor software (Molecular Devices, Sunnyvale, CA, USA).

[5] = target: T2, hTRPV1; assay: Measurement of Ca2+ influx (Fluo-4 AM, FlexStation III) in hTRPV1-expressing cells; type: cell-based; conditions: RR 30 µM or CPZ 1 µM added with agonist
Method: as §3, with “hTRPV1 was constructed by amplification of the hTRPV1 region (NCBI accession number: NG_029716.1) and cloned into pEAK10 vector (Edge Biosystems, Gaithersburg, MD, USA). The hTRPV1 construct was amplified by PCR and the nucleotide sequence of the hTRPV1 gene was confirmed by sequencing with an ABI 3130 DNA genetic analyzer (Applied Biosystems, Foster City, CA, USA). […] After 6 h, transfected cells were seeded onto 96-well black-wall plate (BD Falcon Labware, Franklin Lakes, NJ, USA) for 18–26 h prior to their use in an experiment. The ligand-induced” for “The ligand-induced”

[6] = test system: Bz-insensitive NaCl CT response; parameters: method as in PMID 15146042; conditions: rat CT recordings, cited from earlier work
[7] = target: T2, hTRPV1; assay: Whole-cell patch clamp recording, hTRPV1-expressing HEK293T cells; type: cell-based; conditions: capsaicin 100 nM; NGCC 10^3 µM; holding -80 mV
Method: Mouse ASIC1a (mASIC1a) was a kind gift from John A. Wemmie (University of Iowa, IA, USA). For electrophysiological experiments, HEK293T cells were cultured in DMEM supplemented with 10% FBS and 0.2% penicillin/streptomycin and transiently transfected using Lipofectamine 2000 (Invitrogen) with various cDNAs. For TRPV1 channel expression, cells were transfected with hTRPV1, for ASIC1a homomeric channel expression, cells were transfected with mASIC1a. When needed, 0.1–0.2 µg of cDNA encoding tetrameric red fluorescence protein (DsRed) was co-transfected with the cDNA as a marker for successfully transfected cells. For non-transfected cells, cells were transfected with 0.1–0.2 µg of cDNA encoding DsRed alone. The next day, cells were plated onto poly-L-lysine-coated coverslip chips, and fluorescent cells were studied within 1–2 days.
as §2

T2 sequence (Q8NER1 whole entry): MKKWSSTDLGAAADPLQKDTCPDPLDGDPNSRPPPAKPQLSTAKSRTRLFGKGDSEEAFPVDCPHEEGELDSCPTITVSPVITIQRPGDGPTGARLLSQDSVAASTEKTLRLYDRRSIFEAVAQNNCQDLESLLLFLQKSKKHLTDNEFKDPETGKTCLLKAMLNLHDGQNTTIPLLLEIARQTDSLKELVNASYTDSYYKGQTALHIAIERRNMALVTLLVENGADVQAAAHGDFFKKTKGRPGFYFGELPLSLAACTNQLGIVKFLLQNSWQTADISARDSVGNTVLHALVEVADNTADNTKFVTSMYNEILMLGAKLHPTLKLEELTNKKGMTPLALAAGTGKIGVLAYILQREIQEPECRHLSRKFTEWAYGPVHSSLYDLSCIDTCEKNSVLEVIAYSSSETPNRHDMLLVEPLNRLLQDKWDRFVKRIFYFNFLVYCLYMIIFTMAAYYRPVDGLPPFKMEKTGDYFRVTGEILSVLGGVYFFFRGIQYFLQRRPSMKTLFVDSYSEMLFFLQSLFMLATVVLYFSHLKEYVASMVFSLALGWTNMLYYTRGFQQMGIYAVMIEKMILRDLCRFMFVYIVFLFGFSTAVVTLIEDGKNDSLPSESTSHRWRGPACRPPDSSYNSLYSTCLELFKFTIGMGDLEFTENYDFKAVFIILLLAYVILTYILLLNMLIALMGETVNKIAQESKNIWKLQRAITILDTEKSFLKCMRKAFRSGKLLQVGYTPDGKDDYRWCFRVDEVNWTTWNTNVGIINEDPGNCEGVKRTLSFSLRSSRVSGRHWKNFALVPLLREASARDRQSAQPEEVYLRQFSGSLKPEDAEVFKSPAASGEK
T1 sequence (O75762 whole entry): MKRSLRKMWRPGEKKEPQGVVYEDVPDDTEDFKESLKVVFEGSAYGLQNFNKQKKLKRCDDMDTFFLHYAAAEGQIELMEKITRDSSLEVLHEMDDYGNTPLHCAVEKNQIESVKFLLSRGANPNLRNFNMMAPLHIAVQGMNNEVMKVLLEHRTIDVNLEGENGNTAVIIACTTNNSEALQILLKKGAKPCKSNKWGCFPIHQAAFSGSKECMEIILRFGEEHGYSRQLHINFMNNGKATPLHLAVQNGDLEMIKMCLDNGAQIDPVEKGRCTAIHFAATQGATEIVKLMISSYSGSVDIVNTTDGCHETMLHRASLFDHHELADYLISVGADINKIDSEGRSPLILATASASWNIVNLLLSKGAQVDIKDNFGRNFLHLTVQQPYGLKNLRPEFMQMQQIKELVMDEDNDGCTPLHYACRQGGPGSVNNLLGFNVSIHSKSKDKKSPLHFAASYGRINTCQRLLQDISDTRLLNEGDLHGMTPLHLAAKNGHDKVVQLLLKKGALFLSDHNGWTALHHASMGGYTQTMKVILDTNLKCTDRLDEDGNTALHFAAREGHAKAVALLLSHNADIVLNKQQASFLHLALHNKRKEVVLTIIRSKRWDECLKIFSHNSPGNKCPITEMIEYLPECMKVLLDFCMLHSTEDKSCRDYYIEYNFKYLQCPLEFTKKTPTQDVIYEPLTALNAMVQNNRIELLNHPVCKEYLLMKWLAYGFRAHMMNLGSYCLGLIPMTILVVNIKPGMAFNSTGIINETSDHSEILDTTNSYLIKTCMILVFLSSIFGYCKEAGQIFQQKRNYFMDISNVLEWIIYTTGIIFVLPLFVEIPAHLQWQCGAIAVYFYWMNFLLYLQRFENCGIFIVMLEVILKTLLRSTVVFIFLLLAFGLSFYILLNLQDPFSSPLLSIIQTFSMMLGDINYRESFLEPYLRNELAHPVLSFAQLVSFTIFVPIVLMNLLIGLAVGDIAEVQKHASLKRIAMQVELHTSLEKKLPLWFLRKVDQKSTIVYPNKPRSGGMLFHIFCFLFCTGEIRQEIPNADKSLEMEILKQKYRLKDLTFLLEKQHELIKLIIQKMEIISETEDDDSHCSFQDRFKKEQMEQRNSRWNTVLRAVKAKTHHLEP

block of NGCC-induced currents in hTRPA1-expressing cells ([1]; HC-030031 100 µM)	block of AITC-induced current ([1]; HC-030031 100 µM preincubation 30 seconds, AITC 100 µM)	normalized current density of NGCC-induced current after wash out of HC-030031 ([1]; n = 4)	normalized current density of NGCC-induced current under HC-030031 ([1]; n = 4)	block of NGCC activity on hTRPA1-expressing cells (dose-response) [2]	block of AITC activity on hTRPA1-expressing cells (dose-response) [2]	inhibition of Ca2+ influx induced by 10 µM AITC and 30 µM NGCC in hTRPA1-expressing cells [3]	block of NGCC-induced Ca2+ influx in hTRPV1-expressing cells [4]	inward current in cells expressing hTRPV1 [7]	SMILES	block of capsaicin- and NGCC-induced hTRPV1 activation (dose-response) [5]	effect on the NaCl+Bz CT response at 200 µM ([6]; 200 µM)	concentration giving the maximum increase in the NaCl+Bz CT response [6] [µM]
almost completely inhibited	partially blocked	1.37±0.07	0.25±0.03	almost blocked NGCC activity	partially blocked AITC activity	significantly inhibited	–	–	CC(C)c1ccc(NC(=O)Cn2cnc3c2c(=O)n(C)c(=O)n3C)cc1 [HC-030031]	–	–	–
–	–	–	–	almost blocked NGCC activity	partially blocked AITC activity	significantly inhibited	blocked NGCC activity to baseline levels	–	N.N.N.N.N.N.N.N.N.N.N.N.N.N.[Cl-].[Cl-].[Cl-].[Cl-].[Cl-].[Cl-].[O-2].[O-2].[Ru+3].[Ru+3].[Ru+4] [RR, ruthenium red]	inhibited capsaicin- and NGCC-induced hTRPV1 activation, but was less effective than CPZ	–	–
–	–	–	–	–	–	–	–	induced an inward current	COc1cc(CNC(=O)CCCC/C=C/C(C)C)ccc1O [capsaicin, Capsaicin]	–	completely inhibited	40
